Assay results: ChEMBL document CHEMBL1158853, “Laurencia rigida: chemical investigations of its antifouling dichloromethane extract” (J Nat Prod, 1997)
Counter-ions that a name gives are not always drawn. Active and inactive are the calls of the source. The calls are words filed in the database; no cut-off is given here.

How the values were obtained:
[1] = tested on: Mycotypha microspora; experiment: Antifungal activity against Mycotypha microspora at 50 ug by agar diffusion assay; settings: read-out: IZ
[2] = tested on: Fusarium oxysporum; experiment: Antifungal activity against Fusarium oxysporum at 50 ug by agar diffusion assay; settings: read-out: IZ
[3] = tested on: Aspergillus pseudoglaucus; experiment: Antifungal activity Eurotium repens at 50 ug by agar diffusion assay; settings: read-out: IZ
[4] = tested on: [Chlorella] fusca; experiment: Antialgal activity against Chlorella fusca at 50 ug by agar diffusion assay; format: functional, organism-based; settings: Scenedesmus fuscus
[5] = tested on: Escherichia coli; experiment: Antibacterial activity against Escherichia coli at 50 ug by agar diffusion assay; format: functional, organism-based
[6] = tested on: Priestia megaterium; experiment: Antibacterial activity against Bacillus megaterium at 50 ug by agar diffusion assay; format: functional, organism-based
[7] = tested on: Priestia megaterium; experiment: Antibacterial activity against Bacillus megaterium at 34 ug by agar diffusion assay; format: functional; settings: read-out: IZ
[8] = tested on: Fusarium oxysporum; experiment: Antifungal activity against Fusarium oxysporum at 34 ug by agar diffusion assay; format: functional; settings: read-out: IZ
[9] = tested on: [Chlorella] fusca; experiment: Antialgal activity against Chlorella fusca at 34 ug by agar diffusion assay; format: functional; settings: Scenedesmus fuscus; read-out: IZ
[10] = tested on: Microbotryum violaceum; experiment: Antifungal activity against Ustilago violacea at 34 ug by agar diffusion assay; format: functional; settings: read-out: IZ
[11] = tested on: Mycotypha microspora; experiment: Antifungal activity against Mycotypha microspora at 34 ug by agar diffusion assay; format: functional; settings: read-out: IZ
[12] = tested on: Escherichia coli; experiment: Antibacterial activity against Escherichia coli at 34 ug by agar diffusion assay; format: functional; settings: read-out: IZ
[13] = tested on: Aspergillus pseudoglaucus; experiment: Antifungal activity Eurotium repens at 34 ug by agar diffusion assay; format: functional; settings: read-out: IZ
[14] = tested on: Priestia megaterium; experiment: Antibacterial activity against Bacillus megaterium at 40 ug by agar diffusion assay; format: functional; settings: read-out: IZ
[15] = tested on: Microbotryum violaceum; experiment: Antifungal activity against Ustilago violacea at 40 ug by agar diffusion assay; format: functional; settings: read-out: IZ
[16] = tested on: Fusarium oxysporum; experiment: Antifungal activity against Fusarium oxysporum at 40 ug by agar diffusion assay; format: functional; settings: read-out: IZ
[17] = tested on: Escherichia coli; experiment: Antibacterial activity against Escherichia coli at 40 ug by agar diffusion assay; format: functional; settings: read-out: IZ
[18] = tested on: Mycotypha microspora; experiment: Antifungal activity against Mycotypha microspora at 40 ug by agar diffusion assay; format: functional; settings: read-out: IZ
[19] = tested on: [Chlorella] fusca; experiment: Antialgal activity against Chlorella fusca at 40 ug by agar diffusion assay; format: functional; settings: Scenedesmus fuscus; read-out: IZ
[20] = tested on: Aspergillus pseudoglaucus; experiment: Antifungal activity Eurotium repens at 40 ug by agar diffusion assay; format: functional; settings: read-out: IZ
[21] = tested on: Amphibalanus amphitrite; experiment: Toxicity in Balanus amphitrite nauplii larvae assessed as survival rate; format: organism-based; settings: in vivo
[22] = tested on: Fusarium oxysporum; experiment: Antifungal activity against Fusarium oxysporum at 25 ug by agar diffusion assay; format: functional; settings: read-out: IZ
[23] = tested on: [Chlorella] fusca; experiment: Antialgal activity against Chlorella fusca at 25 ug by agar diffusion assay; format: functional; settings: Scenedesmus fuscus; read-out: IZ
[24] = tested on: Microbotryum violaceum; experiment: Antifungal activity against Ustilago violacea at 25 ug by agar diffusion assay; format: functional; settings: read-out: IZ
[25] = tested on: Priestia megaterium; experiment: Antibacterial activity against Bacillus megaterium at 25 ug by agar diffusion assay; format: functional; settings: read-out: IZ
[26] = tested on: Aspergillus pseudoglaucus; experiment: Antifungal activity Eurotium repens at 25 ug by agar diffusion assay; format: functional; settings: read-out: IZ
[27] = tested on: Escherichia coli; experiment: Antibacterial activity against Escherichia coli at 25 ug by agar diffusion assay; format: functional; settings: read-out: IZ
[28] = tested on: Mycotypha microspora; experiment: Antifungal activity against Mycotypha microspora at 25 ug by agar diffusion assay; format: functional; settings: read-out: IZ
[29] = tested on: Priestia megaterium; experiment: Antibacterial activity against Bacillus megaterium at 85 ug by agar diffusion assay; format: functional; settings: read-out: IZ
[30] = tested on: Escherichia coli; experiment: Antibacterial activity against Escherichia coli at 85 ug by agar diffusion assay; format: functional; settings: read-out: IZ
[31] = tested on: Aspergillus pseudoglaucus; experiment: Antifungal activity Eurotium repens at 45 ug by agar diffusion assay; format: functional; settings: read-out: IZ
[32] = tested on: Microbotryum violaceum; experiment: Antifungal activity against Ustilago violacea at 45 ug by agar diffusion assay; format: functional; settings: read-out: IZ
[33] = tested on: [Chlorella] fusca; experiment: Antialgal activity against Chlorella fusca at 45 ug by agar diffusion assay; format: functional; settings: Scenedesmus fuscus; read-out: IZ
[34] = tested on: Escherichia coli; experiment: Antibacterial activity against Escherichia coli at 45 ug by agar diffusion assay; format: functional; settings: read-out: IZ
[35] = tested on: Mycotypha microspora; experiment: Antifungal activity against Mycotypha microspora at 45 ug by agar diffusion assay; format: functional; settings: read-out: IZ
[36] = tested on: Priestia megaterium; experiment: Antibacterial activity against Bacillus megaterium at 45 ug by agar diffusion assay; format: functional; settings: read-out: IZ
[37] = tested on: Fusarium oxysporum; experiment: Antifungal activity against Fusarium oxysporum at 45 ug by agar diffusion assay; format: functional; settings: read-out: IZ
[38] = tested on: Escherichia coli; experiment: Antibacterial activity against Escherichia coli at 33 ug by agar diffusion assay; format: functional; settings: read-out: IZ
[39] = tested on: Aspergillus pseudoglaucus; experiment: Antifungal activity Eurotium repens at 33 ug by agar diffusion assay; format: functional; settings: read-out: IZ
[40] = tested on: Mycotypha microspora; experiment: Antifungal activity against Mycotypha microspora at 33 ug by agar diffusion assay; format: functional; settings: read-out: IZ
[41] = tested on: Microbotryum violaceum; experiment: Antifungal activity against Ustilago violacea at 33 ug by agar diffusion assay; format: functional; settings: read-out: IZ
[42] = tested on: Priestia megaterium; experiment: Antibacterial activity against Bacillus megaterium at 33 ug by agar diffusion assay; format: functional; settings: read-out: IZ
[43] = tested on: Fusarium oxysporum; experiment: Antifungal activity against Fusarium oxysporum at 33 ug by agar diffusion assay; format: functional; settings: read-out: IZ
[44] = tested on: [Chlorella] fusca; experiment: Antialgal activity against Chlorella fusca at 33 ug by agar diffusion assay; format: functional; settings: Scenedesmus fuscus; read-out: IZ
[45] = tested on: Microbotryum violaceum; experiment: Antifungal activity against Ustilago violacea at 60 ug by agar diffusion assay; format: functional, organism-based
[46] = tested on: Fusarium oxysporum; experiment: Antifungal activity against Fusarium oxysporum at 60 ug by agar diffusion assay; format: functional; settings: read-out: IZ
[47] = tested on: Mycotypha microspora; experiment: Antifungal activity against Mycotypha microspora at 60 ug by agar diffusion assay; format: functional; settings: read-out: IZ
[48] = tested on: Aspergillus pseudoglaucus; experiment: Antifungal activity Eurotium repens at 60 ug by agar diffusion assay; format: functional; settings: read-out: IZ
[49] = tested on: Escherichia coli; experiment: Antibacterial activity against Escherichia coli at 65 ug by agar diffusion assay; format: functional; settings: read-out: IZ
[50] = tested on: Priestia megaterium; experiment: Antibacterial activity against Bacillus megaterium at 65 ug by agar diffusion assay; format: functional; settings: read-out: IZ
[51] = tested on: Escherichia coli; experiment: Antibacterial activity against Escherichia coli at 135 ug by agar diffusion assay; format: functional; settings: read-out: IZ
[52] = tested on: [Chlorella] fusca; experiment: Antialgal activity against Chlorella fusca at 135 ug by agar diffusion assay; format: functional; settings: Scenedesmus fuscus; read-out: IZ
[53] = tested on: Priestia megaterium; experiment: Antibacterial activity against Bacillus megaterium at 135 ug by agar diffusion assay; format: functional; settings: read-out: IZ
[54] = tested on: Mycotypha microspora; experiment: Antifungal activity against Mycotypha microspora at 135 ug by agar diffusion assay; format: functional; settings: read-out: IZ
[55] = tested on: Microbotryum violaceum; experiment: Antifungal activity against Ustilago violacea at 135 ug by agar diffusion assay; format: functional; settings: read-out: IZ
[56] = tested on: Aspergillus pseudoglaucus; experiment: Antifungal activity Eurotium repens at 135 ug by agar diffusion assay; format: functional; settings: read-out: IZ
[57] = tested on: Fusarium oxysporum; experiment: Antifungal activity against Fusarium oxysporum at 135 ug by agar diffusion assay; format: functional; settings: read-out: IZ

Clc1ccc(COC(Cn2ccnc2)c2ccc(Cl)cc2Cl)c(Cl)c1 (stereo unspecified) [MICONAZOLE NITRATE]
zone of inhibition at 50 µg/disc [1]: 7 mm
zone of inhibition at 50 µg/disc [2]: 1 mm
zone of inhibition at 50 µg/disc [3]: 18 mm

C=C1CC[C@H](Br)C(C)(C)[C@]12CC=C(C)CC2
Activity [4]: inactive
Activity [5]: inactive
Activity [6]: inactive

CC(=O)OC(C=C(C)C)C/C(C)=C1/CC=C(C)CC1 (stereo unspecified)
zone of inhibition at 34 µg/disc [7]: 0 mm
zone of inhibition at 34 µg/disc [8]: 0 mm
zone of inhibition at 34 µg/disc [9]: 3 mm
zone of inhibition at 34 µg/disc [10]: 0 mm
zone of inhibition at 34 µg/disc [11]: 0 mm
zone of inhibition at 34 µg/disc [12]: 0 mm
zone of inhibition at 34 µg/disc [13]: 0 mm

C[C@@H]1CCC23[C@H]1CC[C@@]2(C)C[C@H](C)[C@]3(C)O (stereo partly specified)
zone of inhibition at 40 µg/disc [14]: 0 mm
zone of inhibition at 40 µg/disc [15]: 0 mm
zone of inhibition at 40 µg/disc [16]: 0 mm
zone of inhibition at 40 µg/disc [17]: 0 mm
zone of inhibition at 40 µg/disc [18]: 0 mm
zone of inhibition at 40 µg/disc [19]: 2 mm
zone of inhibition at 40 µg/disc [20]: 0 mm

C=C1C[C@H](O)[C@H](Br)C(C)(C)[C@]12CC=C(C)CC2 [DESCHLOROELATOL]
Activity [21]: Toxic
zone of inhibition at 25 µg/disc [22]: 0 mm
zone of inhibition at 25 µg/disc [23]: 2 mm
zone of inhibition at 25 µg/disc [24]: 0 mm
zone of inhibition at 25 µg/disc [25]: 1 mm
zone of inhibition at 25 µg/disc [26]: 18 mm
zone of inhibition at 25 µg/disc [27]: 0 mm
zone of inhibition at 25 µg/disc [28]: 20 mm

CC1(C)S[C@@H]2[C@H](NC(=O)Cc3ccccc3)C(=O)N2[C@H]1C(=O)O [PENICILLIN G POTASSIUM]
zone of inhibition at 85 µg/disc [29]: 20 mm
zone of inhibition at 85 µg/disc [30]: 0 mm

C=C1C[C@H](O)[C@H](Br)C(C)(C)[C@]12C=C[C@@](C)(O)CC2 [RIGIDOL]
zone of inhibition at 45 µg/disc [31]: 0 mm
zone of inhibition at 45 µg/disc [32]: 5 mm
zone of inhibition at 45 µg/disc [33]: 0 mm
zone of inhibition at 45 µg/disc [34]: 0 mm
zone of inhibition at 45 µg/disc [35]: 4 mm
zone of inhibition at 45 µg/disc [36]: 0 mm
zone of inhibition at 45 µg/disc [37]: 0 mm

CC1=CC[C@]2(CC1)C(C)=C[C@@H](O)[C@H](Br)C2(C)C
zone of inhibition at 33 µg/disc [38]: 0 mm
zone of inhibition at 33 µg/disc [39]: 0 mm
zone of inhibition at 33 µg/disc [40]: 3 mm
zone of inhibition at 33 µg/disc [41]: 0 mm
zone of inhibition at 33 µg/disc [42]: 0 mm
zone of inhibition at 33 µg/disc [43]: 0 mm
zone of inhibition at 33 µg/disc [44]: 3 mm

CC1=CC[C@@]2(CC1)C(C)=CC[C@@H](Br)C2(C)C
Activity [4]: inactive
Activity [5]: inactive
Activity [6]: inactive

C[C@@H]1C[C@@H]([C@H](O)CC2CC(=O)NC(=O)C2)C(=O)[C@@H](C)C1 [CYCLOHEXIMIDE]
Activity [45]: Active
zone of inhibition at 60 µg/disc [46]: 3 mm
zone of inhibition at 60 µg/disc [47]: 4 mm
zone of inhibition at 60 µg/disc [48]: 5 mm

CN[C@@H]1[C@H](O[C@H]2[C@H](O[C@H]3[C@H](O)[C@@H](O)[C@H](N=C(N)N)[C@@H](O)[C@@H]3N=C(N)N)O[C@@H](C)[C@]2(O)C=O)O[C@@H](CO)[C@H](O)[C@H]1O [STREPTOMYCIN SULFATE]
zone of inhibition at 65 µg/disc [49]: 3 mm
zone of inhibition at 65 µg/disc [50]: 5 mm

C=C1C[C@H](O)[C@H](Br)C(C)(C)[C@@]12CCC(C)=C(Cl)C2 [ELATOL]
Activity [21]: Toxic
zone of inhibition at 135 µg/disc [51]: 0 mm
zone of inhibition at 135 µg/disc [52]: 0 mm
zone of inhibition at 135 µg/disc [53]: 2 mm
zone of inhibition at 135 µg/disc [54]: 25 mm
zone of inhibition at 135 µg/disc [55]: 3 mm
zone of inhibition at 135 µg/disc [56]: 25 mm
zone of inhibition at 135 µg/disc [57]: 7 mm
